# Data published in patent US20240277767A1, “METHODS AND USES” (PROLEUKOCYTE AB, priority 2021, published 2024).
# Legend:
# Type in all cases: cell-based, human
# [1] = test system: NK cells; assay: Degranulation (CD107a) and IFNγ expression of NK cells co-cultured with K562 cells (flow cytometry); settings: for Degranulation capacity (CD107a expression) of NK cells after co-culture with K562: with and without induction of oxidative stress (H2O2)
# Description: Lymphocytes were isolated and pre-treated when indicated, with compound and H2O2, as described above. For degranulation/measuring CD107a expression, NK cells were co-cultured with K562 tumour cells at an effector target ratio 1:1 in the presence of anti-CD107a in U-bottom plates. After 2 h, GolgiStop™ and GolgiPlug™ (BD Bioscience) were added and cells were harvested after an additional 4 h co-culture and stained for CD56 and CD3, as described above. For positive control, 25 ng/ml PMA (Sigma Aldrich) and 500 ng/mL Ionomycin (Sigma Aldrich) were added.
# Lymphocytes were isolated and pre-treated when indicated, with compounds and/or H2O2, as described above. For degranulation assay, NK cells were co-cultured with K562 cells (E:T ratio 1:1) in the presence of anti-CD107a FITC antibody. After 2 h, GolgiStop™ and GolgiPlug™ (BD Bioscience) were added and cells were harvested after an additional 4 h co-culture and stained for CD56, CD3 and anti-IFNγ, as described above. As a positive control, 25 ng/ml PMA (Sigma Aldrich) and 500 ng/ml Ionomycin (Sigma Aldrich) were added.
# [2] = test system: NK cells; assay: NK cells co-cultured with PMA-activated autologous monocytes: intracellular ROS and K562 lysis
# Description: For Nrf2 inhibition, NK cells were treated with 50 μM ML-385 (Sigma-Aldrich) in parallel. For H2O2 treatment, lymphocyte cells were washed and resuspended to 1×10^6 cells/mL in medium and exposed to indicated H2O2 (Sigma-Aldrich) concentration for 1 h at 37° C. Cells were washed with medium and then used for further experiments. For monocyte experiments, autologous NK cell-monocytes or TIL-monocytes were used. NK cells/TIL were isolated and pre-treated with 0.5 μg/mL AUF, as described above, and co-cultured with unstimulated at the ratio, 1:2 M:NK, or stimulated monocytes at the ratio, 1:1 M:NK, if not indicated otherwise. Stimulated monocytes were activated with 100 ng/ml PMA for 1 min, washed and added at indicated ratio, the number of NK cell/TIL was kept constant. As control, H2O2 was used at indicated concentration. Cells were co-cultured for 2 h and then effector cells were stained for intracellular ROS (see flow cytometry) or used as effector cells in Cr^51 release assay (E:T ratio 10:1).
# Monocytes were stimulated with 100 ng/ml PMA for 1 min and washed with HBSS (Gibco). Cells were resuspended in HBSS 5% FBS and added to a 96-well Optiplate (Perkin Elmer) containing HBSS 5% FBS and Luminol (56 μM; Sigma). Luminescence was measured immediately using a EnSpire plate reader (Perkin Elmer).
# For detection of intracellular ROS levels, for NK cells CellROX™ Deep Red Reagent (Invitrogen) were used. Briefly, NK cells were stained with 2.5 μM CellROX solution in RPMI for 30 min at 37° C. and then stained for flow cytometry with anti-CD56 and anti-CD3 (both Biolegend).
# For cytotoxic assay, a standard 4 h [Cr^51]-release assay was used. Briefly, tumour cells were harvested and labeled with 51Cr (PerkinElmer) and used as target cells. Effector cells, NK cells and T cells, were co-cultured in 96-well V-bottom plate with indicated tumour cells at the stated effector target ratio (E:T). The supernatant was collected onto LUMA plates (Perkin-Elmer) and radioactivity/tumour cell lysis was detected by MicroBeta2 (Perkin Elmer). Target cell killing measured by % specific lysis and calculated using the formula: ((experimental release-spontaneous release)/(maximum release-spontaneous release))*100.
# [3] = test system: NK cells; assay: Phenotype analysis of NK cell surface markers (flow cytometry)
# Description: All antibodies (see Table 1) and FACS reagents were used according to manufactures recommendation, if not stated otherwise. All antibodies had been titrated for optimal signal-to-noise ratio and all staining's were performed in PBS supplemented with 1% FBS. All staining's contained a live/dead marker. Samples were fixed with 2% PFA (Thermo scientific) for 15 min before acquired on a NovoCyte (ACEA Biosciences) and analysed using FlowJo Software (TreeStar).
# For evaluating CD16 expression, NK cells were treated as described above. After H2O2 treatment, NK cells were incubated for 2 h in RPMI 2% AB serum, stained with anti-CD3, anti-CD56 and anti-CD16 and analyzed.
# [4] = test system: ANRU TIL; assay: 3D killing assay: ANRU TIL on autologous tumour spheroids (Caspase 3/7, live cell imaging); settings: 48 h co-culture, vs controls
# Description: 5000 ANRU tumour cells were seeded per well in Ultra-Low Attachment 96-well plates (Corning Costar) in culture medium containing 2% Matrigel (Corning) for 3 days. 1×10^4AUF pre-treated TIL (see above), and spheroids were co-cultured and monitored for 48 h with the IncuCyte live cell imaging system (Essen Bioscience) in the presence of CellEvent™ Caspase 3/7 Green detection agent (Invitrogen).
smiles,measurement,setting,value
"CC(=O)OC[C@H]1O[C@@H]([S-])[C@H](OC(C)=O)[C@@H](OC(C)=O)[C@@H]1OC(C)=O.CCP(CC)CC.[Au+] [AUF, Auranofin]",Difference in protective effect on different NK cell functions (CD107a degranulation vs IFNγ expression),"[1]; during oxidative stress, 6 h co-culture with K562",no difference
same,Degranulation capacity (CD107a expression) of NK cells after co-culture with K562,[1],protective effect was observed both in the presence or absence of H2O2
same,Degranulation capacity (CD107a expression) of NK cells after co-culture with K562,[1]; listed as Auranofin,increased degranulation capacity
same,Protection of NK cells from monocyte-derived ROS,[2],protects NK cells from monocyte-derived ROS
same,Intracellular ROS in NK cells co-cultured with activated monocytes,"[2]; 0.5 μg/mL AUF, 2 h co-culture, vs controls",significantly lower levels of intracellular ROS
same,Killing of K562 target cells by NK cells co-cultured with activated monocytes,[2]; also at the highest monocyte to NK cell ratio,significantly higher efficiency
same,Differences in NK cell surface markers with and without AUF pre-treatment,"[3]; DNAM-1, granzyme B, perforin, CD57, CD69, NKG2A, NKG2D, NKp40, NKp46",few differences
same,Frequency of NK cells expressing CD16 after exposure to H2O2,[3]; untreated compared to AUF pre-treated NK cells,significant decrease in frequency of untreated NK cells expressing CD16
same,NKp30 expression on NK cells,[3]; upon exposure to H2O2,increased expression
same,DNAM-1 and NKp46 on NK cells,[3]; with exposure to H2O2,reduced frequency of positive NK cells and/or reduced cell surface levels
same,"DNAM-1, CD69 and NKG2D on NK cells",[3]; without exposure to H2O2,reduced frequency of positive NK cells and/or reduced cell surface levels
same,Capacity of ANRU TIL to induce apoptosis in spheroid tumour cells (Caspase 3/7),[4],significantly increased capacity to induce apoptosis
